Results published in patent US8128913B1, “Sunscreen composition with enhanced UV-A absorber stability and methods” (Skinvisible Pharmaceuticals, Inc., priority 2007, dated 2012).

Legend:
[1] = in vivo; cited from earlier work
[2] = photostability of sunscreen film on polyethylene under UV light at 365 nm, extraction and C18 chromatography; type: physicochemical; details: Example 1 composition (no tricontanyl polymer), between 4 and 8 hours of UV exposure, 2340 Watts/m^2
Protocol: To test the photostability of the sunscreen composition, 200-250 μl of the sunscreen composition was spread evenly over a 25 cm^2 piece of polyethylene film. The amount of sunscreen preparation was determined by weight, and the polyethylene film was dried for 1 hour at 35° C. After drying the film was exposed to […] (2340 Watts/m^2) of UV light at 365 nm for 0, 2, 4, 6 and 8 hours. Following light exposure, sunscreen was extracted with ethanol containing 1% acetic acid. Extracts were separated and quantitated with a C18 column with a methanol:water linear gradient.
The composition contains 3 wt. % avobenzone, 6 wt. % octocrylene, and 4 wt. % oxybenzophenone as sunscreen agents. Photo stability test of the composition was carried out as described in Example 1.

loss of sunscreen agent with UV exposure [2]	Molecule	dermal toxicity [1]
	Poly(vinylpyrrolidone/1-hexadecene) [PVPH]	no demonstrable dermal toxicity
~50%	COc1ccc(C(=O)CC(=O)c2ccc(C(C)(C)C)cc2)cc1 [avobenzone]	
	Poly(vinylpyrrolidone/eicosene) [PVPE]	no demonstrable dermal toxicity
